Where two headings read alike, the source gives them in different places.
How the values were obtained:
PTH2R/PTH1R = test: cAMP response selectivity between PTH2R and PTH1R; format: cell-based; settings: most selective; for cAMP response PTH1R/PTH2R: Table 17
Description: Selected analogs containing beta-amino acid substitutions selectively signal through one or the other of the two receptors. Without being bound to any underling biological phenomenon or mechanism, PTHR-2 likely serves an alternative function to PTHR-1 as it is highly expressed in the central nervous system. In contrast, PTHR-1 is highly expressed in bone and kidney, but not in the CNS. The analogs disclosed herein are thus useful as therapeutic compounds that a specific agonists or antagonists of PTHR-1 and PTHR-2.

WT human PTHR-1 = target: T1, WT human PTHR-1 (Homo sapiens, UniProt Q03431); test: cAMP GloSensor dose-response in GP-2.3 cells expressing human PTHR-1; format: cell-based; settings: for cAMP (hPTHR-1) Max: luminescence counts per second relative to PTH(1-34); for cAMP (hPTHR-1) Max / Max: 12-16 minutes after ligand addition; for Fold nM PTH(1-34): EC50 relative to PTH(1-34)
T1 construct: bioactivity of the resulting compound in full-length hPTHR-1 and a truncated version; expressed in transfected cells
T1 sequence (Q03431 27-593): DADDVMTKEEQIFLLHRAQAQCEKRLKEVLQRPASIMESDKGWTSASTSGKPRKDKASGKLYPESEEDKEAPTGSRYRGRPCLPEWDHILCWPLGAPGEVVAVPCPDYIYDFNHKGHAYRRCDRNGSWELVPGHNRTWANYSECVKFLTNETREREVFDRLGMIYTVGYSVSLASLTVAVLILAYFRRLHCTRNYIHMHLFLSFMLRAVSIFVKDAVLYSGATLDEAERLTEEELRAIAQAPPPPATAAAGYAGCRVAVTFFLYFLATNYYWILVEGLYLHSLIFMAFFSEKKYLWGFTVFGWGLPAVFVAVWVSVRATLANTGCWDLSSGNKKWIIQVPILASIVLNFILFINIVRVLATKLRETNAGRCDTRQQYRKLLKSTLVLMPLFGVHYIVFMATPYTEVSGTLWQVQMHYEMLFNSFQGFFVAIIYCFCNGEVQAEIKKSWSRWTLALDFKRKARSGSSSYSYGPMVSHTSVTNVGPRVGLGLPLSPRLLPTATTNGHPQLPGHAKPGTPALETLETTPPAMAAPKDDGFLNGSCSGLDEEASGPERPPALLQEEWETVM
Outline: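 Confluent cells preloaded with 0.5 mM d-luciferin at room temperature until luminescence baseline stabilised (30 min), then given varying agonist concentrations. Luminescence time course recorded after α/β-peptide addition. Means ±SEM of n>4 experiments, each in duplicate.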

R^0 form of human PTHR-1 = target: T2, R^0 form of human PTHR-1 (Homo sapiens, UniProt Q03431); test: Radio-ligand competition binding to R^0 form of human PTHR-1 (COS-7 membranes, 125I-PTH(1-34) tracer, GTPγS); settings: for R^0/RG: Table 4, ratio of R^0 to RG IC50, human PTHR-1; for affinity for the R^0 state of hPTHR-1, in words: compared with PTH(1-34)
T2 construct: expressed in transfected cells; host or cells: COS-7
T2 sequence (Q03431 27-593): T1 sequence (Q03431 27-593)
Description: (§1) Data are means (±SEM) of n≥4 experiments, each performed in duplicate.

R^0 form of rat PTHR-1 = target: T3, R^0 form of rat PTHR-1 (Rattus norvegicus, UniProt P25961); test: Radio-ligand competition binding to R^0 form of rat PTHR-1; settings: for R^0/RG: ratio of R^0 to RG IC50, rat PTHR-1; for affinity for the R^0 state of rPTHR-1, in words: compared with PTH(1-34)
T3 construct: expressed in transfected cells; host or cells: COS-7
T3 sequence (P25961 27-591): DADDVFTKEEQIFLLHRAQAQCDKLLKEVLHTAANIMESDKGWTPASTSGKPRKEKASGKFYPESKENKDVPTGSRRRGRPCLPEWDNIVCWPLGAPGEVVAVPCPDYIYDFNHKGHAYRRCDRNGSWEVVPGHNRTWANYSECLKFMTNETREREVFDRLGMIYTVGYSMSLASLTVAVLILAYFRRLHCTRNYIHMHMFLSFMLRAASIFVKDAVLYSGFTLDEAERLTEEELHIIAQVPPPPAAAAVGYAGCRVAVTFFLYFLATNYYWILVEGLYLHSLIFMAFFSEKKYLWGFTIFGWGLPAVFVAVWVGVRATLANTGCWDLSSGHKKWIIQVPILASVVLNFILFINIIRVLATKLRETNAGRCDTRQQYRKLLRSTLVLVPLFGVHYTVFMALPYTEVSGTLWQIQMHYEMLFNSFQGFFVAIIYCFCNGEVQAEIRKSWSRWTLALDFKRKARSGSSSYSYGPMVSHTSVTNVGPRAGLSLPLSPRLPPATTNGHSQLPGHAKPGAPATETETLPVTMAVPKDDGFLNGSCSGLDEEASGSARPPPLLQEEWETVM
Description: as §1

RG form of human PTHR-1 = target: T4, RG form of human PTHR-1 (Homo sapiens, UniProt Q03431); test: Radio-ligand competition binding to RG form of human PTHR-1 (COS-7 membranes, 125I-M-PTH(1-15) tracer, high affinity Gαs mutant)
T4 construct: expressed in transfected cells; host or cells: COS-7
T4 sequence (Q03431 27-593): T1 sequence (Q03431 27-593)
Description: as §1

[1] = Table 6, GP-2.3 cells, mean ± SEM
[2] = Table 2, read-out: R^0 IC50, nM, Binding (rPTHR-1)
[3] = Table 5, rat PTHR-1, mean ± SEM, read-out: R^0 -log (IC50) (converted)

| Structure (SMILES) | cAMP response PTH2R/PTH1R (PTH2R/PTH1R; Table 16) | cAMP response PTH1R/PTH2R (PTH2R/PTH1R) | cAMP (hPTHR-1) Max (WT human PTHR-1; Table 1) | Max (WT human PTHR-1; [1]) | IC50 (R^0 form of human PTHR-1; Table 1, COS-7 membranes, 125I-PTH(1-34) tracer, GTPγS, read-out: R^0 IC50, nM, Binding (hPTHR-1)) [nM] | R^0/RG (R^0 form of human PTHR-1) | affinity for the R^0 state of hPTHR-1, in words (R^0 form of human PTHR-1) | IC50 (R^0 form of rat PTHR-1; [2]) [nM] | IC50 (R^0 form of rat PTHR-1; [3]) [nM] | R^0/RG (R^0 form of rat PTHR-1; Table 5) | affinity for the R^0 state of rPTHR-1, in words (R^0 form of rat PTHR-1) | IC50 (RG form of human PTHR-1; Table 1, 125I-M-PTH(1-15) tracer, Gαs mutant, read-out: RG IC50, nM, Binding (hPTHR-1)) [nM] | EC50 (WT human PTHR-1; Table 1, GP-2.3 cells, read-out: cAMP (hPTHR-1) EC50) [nM] | Fold nM PTH(1-34) (WT human PTHR-1; Table 6) | IC50 (R^0 form of human PTHR-1) [nM] | IC50 (RG form of human PTHR-1) [nM] | pEC50 (WT human PTHR-1; [1]) |
| --- | --- | --- | --- | --- | --- | --- | --- | --- | --- | --- | --- | --- | --- | --- | --- | --- | --- |
| CC[C@H](C)[C@H](NC(=O)[C@H](CCC(=O)O)NC(=O)[C@H](CO)NC(=O)[C@@H](NC(=O)[C@@H](N)CO)C(C)C)C(=O)N[C@@H](CCC(N)=O)C(=O)N[C@@H](CC(C)C)C(=O)N[C@@H](CCSC)C(=O)N[C@@H](Cc1cnc[nH]1)C(=O)N[C@@H](CC(N)=O)C(=O)N[C@@H](CC(C)C)C(=O)NCC(=O)N[C@@H](CCCCN)C(=O)N[C@@H](Cc1cnc[nH]1)C(=O)N[C@@H](CC(C)C)C(=O)N[C@@H](CC(N)=O)C(=O)N[C@@H](CO)C(=O)N[C@@H](CCSC)C(=O)N[C@@H](CCC(=O)O)C(=O)N[C@@H](CCCN=C(N)N)C(=O)N[C@H](C(=O)N[C@@H](CCC(=O)O)C(=O)N[C@@H](Cc1c[nH]c2ccccc12)C(=O)N[C@@H](CC(C)C)C(=O)N[C@@H](CCCN=C(N)N)C(=O)N[C@@H](CCCCN)C(=O)N[C@@H](CCCCN)C(=O)N[C@@H](CC(C)C)C(=O)N[C@@H](CCC(N)=O)C(=O)N[C@@H](CC(=O)O)C(=O)N[C@H](C(=O)N[C@@H](Cc1cnc[nH]1)C(=O)N[C@@H](CC(N)=O)C(=O)N[C@@H](Cc1ccccc1)C(=O)O)C(C)C)C(C)C [PTH(1-34), reference compound] | 1.1 | 0.9 | 1.00 | 217 ± 20 luminescence counts per second × 10^−3 | – | – | – | – | – | – | – | – | – | – | – | – | – |
| CC[C@H](C)[C@H](NC(=O)[C@H](CCC(=O)O)NC(=O)[C@H](CO)NC(=O)[C@@H](NC(=O)[C@@H](N)CO)C(C)C)C(=O)N[C@@H](CCC(N)=O)C(=O)N[C@@H](CC(C)C)C(=O)N[C@@H](CCSC)C(=O)N[C@@H](Cc1c[nH]cn1)C(=O)N[C@@H](CC(N)=O)C(=O)N[C@@H](CC(C)C)C(=O)NCC(=O)N[C@@H](CCCCN)C(=O)N[C@@H](Cc1c[nH]cn1)C(=O)N[C@@H](CC(C)C)C(=O)N[C@@H](CC(N)=O)CC(=O)N[C@@H](CO)C(=O)N[C@@H](CCSC)C(=O)N[C@@H](CCC(=O)O)C(=O)N[C@@H](CCCNC(=N)N)CC(=O)N[C@H](C(=O)N[C@@H](CCC(=O)O)C(=O)N[C@@H](Cc1c[nH]c2ccccc12)C(=O)N[C@H](CC(=O)N[C@@H](CCCNC(=N)N)C(=O)N[C@@H](CCCCN)C(=O)N[C@@H](CCCCN)C(=O)N[C@H](CC(=O)N[C@@H](CCC(N)=O)C(=O)N[C@@H](CC(=O)O)C(=O)N[C@H](C(=O)N[C@@H](CCC(N)=O)CC(=O)N[C@@H](CC(N)=O)C(=O)N[C@@H](Cc1ccccc1)C(N)=O)C(C)C)CC(C)C)CC(C)C)C(C)C [B5] | – | 43 | 0.98 | 212 ± 30 luminescence counts per second × 10^−3 | 19 | 225 | an order of magnitude more weakly | 65 | 66.1 | 15 | significantly weaker affinity | 0.086 | 0.11 | 0.63 | – | – | – |
| CC[C@H](C)[C@H](NC(=O)[C@H](CCC(=O)O)NC(=O)[C@H](CO)NC(=O)[C@@H](NC(=O)[C@@H](N)CO)C(C)C)C(=O)N[C@@H](CCC(N)=O)C(=O)N[C@@H](CC(C)C)C(=O)N[C@@H](CCSC)C(=O)N[C@@H](Cc1cnc[nH]1)C(=O)N[C@@H](CC(N)=O)C(=O)N[C@@H](CC(C)C)C(=O)NCC(=O)N[C@@H](CCCCN)C(=O)N[C@H](CC(=O)N[C@@H](CC(C)C)C(=O)N[C@@H](CC(N)=O)C(=O)N[C@@H](CO)C(=O)N[C@@H](CCSC)CC(=O)N[C@@H](CCC(=O)O)C(=O)N[C@@H](CCCNC(=N)N)C(=O)N[C@H](C(=O)N[C@@H](CCC(=O)O)CC(=O)N[C@@H](Cc1c[nH]c2ccccc12)C(=O)N[C@@H](CC(C)C)C(=O)N[C@@H](CCCNC(=N)N)C(=O)N[C@@H](CCCCN)CC(=O)N[C@@H](CCCCN)C(=O)N[C@@H](CC(C)C)C(=O)N[C@@H](CCC(N)=O)C(=O)N[C@@H](CC(=O)O)CC(=O)N[C@H](C(=O)N[C@@H](Cc1cnc[nH]1)C(=O)N[C@@H](CC(N)=O)C(=O)N[C@H](CC(N)=O)Cc1ccccc1)C(C)C)C(C)C)Cc1c[nH]c2ccccc12 [D6] | – | 33 | 0.87 | 189 ± 29 luminescence counts per second × 10^−3 | – | 31 | comparably to PTH(1-34) | 6.1 | 6.03 | 8 | somewhat weaker affinity | – | – | 0.76 | 2 | 0.065 | 9.89 ± 0.08 |
